Laboratory results taken from ChEMBL document CHEMBL1148961, “10-membered macrolides from the insect pathogenic fungus Cordyceps militaris BCC 2816” (J Nat Prod, 2004).
Converted amounts (≈) assume the structure as drawn. The source made the active and inactive calls. The calls are words filed in the database; no cut-off is given here.

Tests used:
Plasmodium falciparum [1] = test: Antimalarial activity against multidrug-resistant Plasmodium falciparum K1 at <20 ug/mL after 24 hrs by [3H]hypoxanthine uptake; assay type: functional, organism-based
Plasmodium falciparum [2] = test: Antimalarial activity against multidrug-resistant Plasmodium falciparum K1 after 24 hrs by [3H]hypoxanthine uptake; assay type: functional, organism-based

## C[C@@H]1CCC(=O)C[C@H](O)[C@@H](O)CC(=O)O1
Plasmodium falciparum [1]
  Activity: inactive

## C[C@H]1[C@@H](O)O[C@@H]2O[C@@]3(C)CC[C@H]4[C@H](C)CC[C@@H]1[C@@]24OO3 [ARTENIMOL]
Plasmodium falciparum [2]
  IC50: 0.0012 µg/mL (≈ 0.00422 µM)

## Nc1ncnc2c1ncn2[C@@H]1O[C@H](CO)C[C@H]1O [CORDYCEPIN]
Plasmodium falciparum [2]
  IC50: 4.5 µg/mL (≈ 17.9 µM)

## CO[C@H]1CC(=O)CC[C@@H](C)OC(=O)C[C@@H]1O
Plasmodium falciparum [1]
  Activity: inactive

## C[C@@H]1CC[C@@H](O)/C=C/[C@@H](O)CC(=O)O1
Plasmodium falciparum [1]
  Activity: inactive

## CO[C@@H]1CC(=O)CC[C@@H](C)OC(=O)C[C@@H]1O
Plasmodium falciparum [1]
  Activity: inactive
